Consider 37 substances from patent US9067967B2, “Peptides useful in the treatment and care of the skin and mucous membranes and their use in cosmetic or pharmaceutical compositions” (LIPOTEC, S.A., priority 2011, dated 2015).

Holding throughout (assay type): cell-based
Assay [1] relates to human AQP-3 promoter. The experiment in a line: Modulation of the human AQP-3 promoter activity (luciferase reporter in stably transfected keratinocytes). The note with it: peptide at 0.5 mg/mL, 16-24 hours; normalized to negative control (carrier = 100%). The protocol:
The modulation capacity of the promoter of the AQP-3 gene was evaluated in a cell line of keratinocytes stably transfected with the luciferase gene under the regulation of the human AQP-3 promoter. 20,000 to 30,000 cells per well were seeded and incubated for 24 hours in DMEM medium, after which the peptides of the invention were added at 0.5 mg/mL and were incubated for another 16-24 hours. The DMEM medium (carrier) was used as a negative control. The measurement of the promoter's activity was carried out using the Steady-Glo® Luciferase Assay System (PROMEGA) kit following the manufacturer's instructions. The luminescence values were read on a luminometer at 630 nm and the activity of the promoter was determined, which was normalized with regards to the values of the negative control.
For orientation: In a reporter assay the amount or activity of a reporter protein is the signal.

Assay [2] has as its system AQP-3 gene. The assay can be described thus: Relative quantification of AQP-3 mRNA by quantitative real time PCR in human epidermal keratinocytes. The note with it: 0.1 mg/mL, 16-24 hours; normalized to untreated cells (carrier = 100%). The protocol: The expression levels of the gene AQP-3 were measured by PCR in quantitative real time. A human keratinocyte cell line from adult skin was incubated at a density of 10,000 to 20,000 cells per well in EpiLife™ medium (Cascade Biologics) for 3-5 days and they were subsequently incubated with the peptides of the invention for another 16-24 hours, after which the cells were lysed and the RNA was extracted. The PCR was carried out in quantitative real time using the Taqman® Gene Expression Cells-to-CT (Applied Biosystems) kit according to the manufacturer's instructions and with the appropriate probes (TaqMan® Hs00185020_m1 probe for the AQP-3 gene and Taqman® Hs99999901_s1 probe for the eukaryotic ribosomal subunit 18S, the endogenous control of expression) and the values were normalized with regards to the basal levels of AQP-3 mRNA of the untreated cells (carrier).
(In general: Quantitative PCR measures a nucleic acid by following its amplification.)

Assay [3] concerns human dermal fibroblasts (HDFa). The assay can be described thus: Stimulation of collagen type I synthesis in human dermal fibroblasts (ELISA). The note with it: 48 hours, carrier = 0%. The protocol: The ability of the peptides of the invention to stimulate collagen type I synthesis in human dermal fibroblasts (HDFa, Cascade Biologics) was evaluated in culture using ELISA (enzyme-linked immunosorbent assay). The fibroblasts grew in M106 supplemented with specific factors for their growth. 50,000 cells per well were seeded and incubated at 37° C., 5% CO2, with humidified air. After 24 hours the peptides of the invention were added, and were incubated for another 48 hours, after which the supernatants were collected.
96-well plates were covered with 50 μL of a standard bovine collagen type I (Sigma) or with the previously collected supernatants. The collagen was absorbed onto the wells throughout the night at 4° C. in a humidified atmosphere. The plates were washed three times and were blocked for one hour with 3% bovine serum albumin, after which they were incubated with a primary anti-collagen type I anti-body (Sigma) for 2 hours. Subsequently, the secondary antibody, goat anti-mouse IgG-HRP (Molecular Probes) was added. The plates were incubated with the […] for 30 minutes under stirring and the reaction was stopped by adding 3 M of H2SO4. The absorbance was measured at 490 nm in a plate reader (Genios, Tecan) and the concentration of collagen was determined by comparing it with a standard linear regression line.
(In general: In an ELISA, binding on a coated surface is turned into a signal by an enzyme label.)

Assay [4] has as its system human epidermal keratinocytes. The assay can be described thus: Proliferation of human epidermal keratinocytes (calcein-AM fluorescence). The note with it: 24 hours, carrier = 0%. As for the experimental part:
Cell proliferation was evaluated by a fluorescence-based cell viability method, in which the live cells are distinguished from the dead cells by the enzymatic conversion of calcein-AM to its fluorescent form.
Human keratinocytes were cultivated in DMEM supplemented with fetal bovine serum (FBS, Cultek) until confluence is achieved. The cells were then separated using trypsin and were seeded in 96-well plates. After 24 hours of incubation in DMEM at 37° C. in a humidified atmosphere at 5% CO2 a fresh medium was added with different concentrations of the product of the invention. Cells treated with DMEM as a negative control were used. The cells were incubated for another 24 hours under the same conditions and the medium was substituted by 100 μl of calcein-AM (Molecular Probes) at 0.4 μM diluted in phosphate buffered saline (PBS, Sigma). After 30 minutes of incubation at 37° C. the fluorescence was measured at excitation 485 nm 1 and emission 530 nm (λem) in a plate reader (Genios Tecan). The total growth percentage was calculated as T/C×100 wherein T is the fluorescence of the wells treated with the peptides of the invention and C the fluorescence of the control wells treated with DMEM.

In the case of “Ac-L-Ser-L-Pro-L-Ala-Gly-Gly-L-Gln-NH2 (Ac-SPAGGQ-NH2) [Ac-SEQ ID 8-NH2]”, in assay [1], the “Activity of the AQP-3 promoter (%)” value worked out at 152%. Take “Ac-L-Ser-L-Pro-L-Ala-Gly-Gly-L-His-NH2 (Ac-SPAGGH-NH2) [Ac-SEQ ID 45-NH2]”: the “Activity of the AQP-3 promoter (%)” value in assay [1] turned out to be 120%.

Regarding “Ac-L-Ser-L-Pro-L-Ala-Gly-Gly-L-Pro-NH2 (Ac-SPAGGP-NH2) [Ac-SEQ ID 10-NH2]”, in assay [2], the “% relative quantity AQP-3 mRNA” value is given as 200%. The “Activity of the AQP-3 promoter (%)” value in assay [1] was 135%. For the same substance, the “% Increase in collagen type I synthesis” value is 36% in assay [3] (0.01 mg/mL) and 58% in assay [3] (0.1 mg/mL). Besides, the “% Stimulation of proliferation” value in assay [4] (0.16 mg/mL) is listed as 24%; in assay [4] (0.62 mg/mL), 28%; in assay [4] (2.50 mg/mL) it was 31%. “Ac-L-Ser-L-Pro-L-Ala-L-Glu-Gly-Gly-NH2 (Ac-SPAEGG-NH2) [Ac-SEQ ID 6-NH2]”: the “Activity of the AQP-3 promoter (%)” value in assay [1] came to 124%. Still for that read-out and setting: to “Ac-L-Ser-L-Pro-L-Ala-L-Glu-Gly-L-Gln-NH2 (Ac-SPAEGQ-NH2) [Ac-SEQ ID 5-NH2]” belongs 121%; to “Ac-L-Ser-L-Pro-L-Ala-L-Glu-Gly-L-His-NH2 (Ac-SPAEGH-NH2) [Ac-SEQ ID 48-NH2]”, 117%. Consider “Ac-L-Ser-L-Pro-L-Ala-L-Val-Gly-Gly-NH2 (Ac-SPAVGG-NH2) [Ac-SEQ ID 40-NH2]”, for which, in assay [1], the “Activity of the AQP-3 promoter (%)” value is given as 126%. Same read-out and setting: to “Ac-L-Ser-L-Pro-L-Ala-L-Val-Gly-L-Gln-NH2 (Ac-SPAVGQ-NH2) [Ac-SEQ ID 39-NH2]” belongs 133%. For the substance “Ac-L-Ser-L-Pro-L-Ala-L-Val-Gly-L-Pro-NH2 (Ac-SPAVGP-NH2) [Ac-SEQ ID 49-NH2]”, the “Activity of the AQP-3 promoter (%)” value in assay [1] amounted to 116%.

As for “Ac-L-Ser-L-Val-L-Ala-Gly-Gly-Gly-NH2 (Ac-SVAGGG-NH2) [Ac-SEQ ID 38-NH2]”, the “Activity of the AQP-3 promoter (%)” value in assay [1] was 156%.

“Ac-L-Ser-L-Val-L-Ala-Gly-Gly-L-Gln-NH2 (Ac-SVAGGQ-NH2) [Ac-SEQ ID 50-NH2]”: the “Activity of the AQP-3 promoter (%)” value in assay [1] was 115%. On to “Ac-L-Ser-L-Val-L-Ala-Gly-Gly-L-His-NH2 (Ac-SVAGGH-NH2) [Ac-SEQ ID 41-NH2]”, for which the “Activity of the AQP-3 promoter (%)” value in assay [1] is 124%. With “Ac-L-Ser-L-Val-L-Ala-Gly-Gly-L-Pro-NH2 (Ac-SVAGGP-NH2) [Ac-SEQ ID 13-NH2]”, the “Activity of the AQP-3 promoter (%)” value in assay [1] is 144%. As to “Ac-L-Ser-L-Val-L-Ala-L-Glu-Gly-Gly-NH2 (Ac-SVAEGG-NH2) [Ac-SEQ ID 46-NH2]”, the “Activity of the AQP-3 promoter (%)” value in assay [1] is recorded as 119%.

As for “Ac-L-Ser-L-Val-L-Ala-L-Glu-Gly-L-Gln-NH2 (Ac-SVAEGQ-NH2) [Ac-SEQ ID 12-NH2]”, the “Activity of the AQP-3 promoter (%)” value in assay [1] worked out at 138%. With “Ac-L-Ser-L-Val-L-Ala-L-Glu-Gly-L-His-NH2 (Ac-SVAEGH-NH2) [Ac-SEQ ID 58-NH2]”, the “Activity of the AQP-3 promoter (%)” value in assay [1] was 112%. As to “Ac-L-Ser-L-Val-L-Ala-L-Val-Gly-Gly-NH2 (Ac-SVAVGG-NH2) [Ac-SEQ ID 16-NH2]”, the “Activity of the AQP-3 promoter (%)” value in assay [1] was 127%. Turning to “Ac-L-Ser-L-Val-L-Ala-L-Val-Gly-L-Gln-NH2 (Ac-SVAVGQ-NH2) [Ac-SEQ ID 15-NH2]”, the “% relative quantity AQP-3 mRNA” value in assay [2] is 162%. Besides, the “Activity of the AQP-3 promoter (%)” value in assay [1] came to 129%.

On to “Ac-L-Ser-L-Val-L-Ala-L-Val-Gly-L-Pro-NH2 (Ac-SVAVGP-NH2) [Ac-SEQ ID 17-NH2]”, for which the “Activity of the AQP-3 promoter (%)” value in assay [1] came out at 121%.

For “Ac-L-Tyr-L-Pro-L-Ala-Gly-Gly-Gly-NH2 (Ac-YPAGGG-NH2) [Ac-SEQ ID 25-NH2]”, the “Activity of the AQP-3 promoter (%)” value in assay [1] was 132%. For “Ac-L-Tyr-L-Pro-L-Ala-Gly-Gly-L-Gln-NH2 (Ac-YPAGGQ-NH2) [Ac-SEQ ID 43-NH2]”, the “Activity of the AQP-3 promoter (%)” value in assay [1] was found to be 122%.

Consider “Ac-L-Tyr-L-Pro-L-Ala-Gly-Gly-L-Pro-NH2 (Ac-YPAGGP-NH2) [Ac-SEQ ID 26-NH2]”, for which the “Activity of the AQP-3 promoter (%)” value in assay [1] was 114%. Still for that read-out and setting: next, “Ac-L-Tyr-L-Pro-L-Ala-L-Glu-Gly-Gly-NH2 (Ac-YPAEGG-NH2) [Ac-SEQ ID 23-NH2]”: 125%. For “Ac-L-Tyr-L-Pro-L-Ala-L-Glu-Gly-L-Gln-NH2 (Ac-YPAEGQ-NH2) [Ac-SEQ ID 22-NH2]”, the “% relative quantity AQP-3 mRNA” value in assay [2] worked out at 229%. Further, the “Activity of the AQP-3 promoter (%)” value in assay [1] was 135%. In the case of “Ac-L-Tyr-L-Pro-L-Ala-L-Glu-Gly-L-Pro-NH2 (Ac-YPAEGP-NH2) [Ac-SEQ ID 24-NH2]”, in assay [1], the “Activity of the AQP-3 promoter (%)” value turned out to be 121%. For the substance “Ac-L-Tyr-L-Pro-L-Ala-L-Val-Gly-Gly-NH2 (Ac-YPAVGG-NH2) [Ac-SEQ ID 29-NH2]”, the “Activity of the AQP-3 promoter (%)” value in assay [1] was 125%.

As for “Ac-L-Tyr-L-Pro-L-Ala-L-Val-Gly-L-Gln-NH2 (Ac-YPAVGQ-NH2) [Ac-SEQ ID 28-NH2]”, the “Activity of the AQP-3 promoter (%)” value in assay [1] stood at 129%.

On to “Ac-L-Tyr-L-Pro-L-Ala-L-Val-Gly-L-His-NH2 (Ac-YPAVGH-NH2) [Ac-SEQ ID 30-NH2]”, for which, in assay [1], the “Activity of the AQP-3 promoter (%)” value was found to be 121%.

On to “Ac-L-Tyr-L-Pro-L-Ala-L-Val-Gly-L-Pro-NH2 (Ac-YPAVGP-NH2) [Ac-SEQ ID 31-NH2]”, for which, in assay [1], the “Activity of the AQP-3 promoter (%)” value was 122%. As to “Ac-L-Tyr-L-Val-L-Ala-Gly-Gly-Gly-NH2 (Ac-YVAGGG-NH2) [Ac-SEQ ID 33-NH2]”, the “Activity of the AQP-3 promoter (%)” value in assay [1] was found to be 129%. Regarding “Ac-L-Tyr-L-Val-L-Ala-Gly-Gly-L-Gln-NH2 (Ac-YVAGGQ-NH2) [Ac-SEQ ID 42-NH2]”, in assay [1], the “Activity of the AQP-3 promoter (%)” value is reported as 123%. On the same count and under the same terms, to “Ac-L-Tyr-L-Val-L-Ala-Gly-Gly-L-His-NH2 (Ac-YVAGGH-NH2) [Ac-SEQ ID 34-NH2]” belongs 136%. Consider “Ac-L-Tyr-L-Val-L-Ala-Gly-Gly-L-Pro-NH2 (Ac-YVAGGP-NH2) [Ac-SEQ ID 35-NH2]”, for which the “Activity of the AQP-3 promoter (%)” value in assay [1] came to 150%. As for “Ac-L-Tyr-L-Val-L-Ala-L-Glu-Gly-Gly-NH2 (Ac-YVAEGG-NH2) [Ac-SEQ ID 56-NH2]”, the “Activity of the AQP-3 promoter (%)” value in assay [1] was determined as 112%. As to “Ac-L-Tyr-L-Val-L-Ala-L-Glu-Gly-L-His-NH2 (Ac-YVAEGH-NH2) [Ac-SEQ ID 44-NH2]”, in assay [1], the “Activity of the AQP-3 promoter (%)” value was 120%. Consider “Ac-L-Tyr-L-Val-L-Ala-L-Glu-Gly-L-Pro-NH2 (Ac-YVAEGP-NH2) [Ac-SEQ ID 32-NH2]”, for which the “Activity of the AQP-3 promoter (%)” value in assay [1] was 135%. Regarding “Ac-L-Tyr-L-Val-L-Ala-L-Val-Gly-Gly-NH2 (Ac-YVAVGG-NH2) [Ac-SEQ ID 36-NH2]”, the “Activity of the AQP-3 promoter (%)” value in assay [1] worked out at 120%.
